Values of other authors as cited in patent US12509559B2, “Bacterial beta-lactamase responsive hydrogels” (Brown University, priority 2019, dated 2025).

Conditions: adamantane in β-cyclodextrin cavity

For `C1C2CC3CC1CC(C2)C3` [adamantane], the “association constant, K” value is listed as ~10^5 M^−1.
